# Experimental data reported in patent US20070254894A1, “Novel small molecules with selective cytotoxicity against human microvascular endothelial cell proliferation” (priority 2006, published 2007).
# Tested on: HMVEC cells stimulated with VEGF 165
# Test: VEGF driven HMVEC proliferation screen
# Assay type: cell-based
# Settings: not given
# Procedure: (§1) HMVEC cells were plated on collagen-coated plates at 2500 cells/well for 24 hours. Various concentrations of test compounds were then added to duplicate plates. […] Anti-FGF antibody (final concentration of 5 μg/mL) was added to four control wells as a standard inhibitor. At the same time the compounds were added, a T-zero plate was generated (Alamar blue was added to a plate and read after three hours). The plates with the compounds were incubated for one hour at 37° C., 5% carbon dioxide. At this point, b-FGF was added (final concentration of 2.5 ng/mL). Tween-20 (10 μL) was added to four additional control wells to represent total death and the plates were returned to the carbon dioxide incubator for 6 days.
# The assay was run identically using VEGF in place of b-FGF. The final concentration of VEGF 165, in this mode, was 10 ng/mL. The control inhibitor was anti-VEGF antibody (final concentration of […]). All other conditions were the same.
row,Structure (SMILES),CC50
1,O=C(Nc1cc(Cl)cc2cccnc12)c1ccccn1 [Compound 4],120 nM
2,Cc1ccc2cccc(NC(=O)c3ccccn3)c2n1 [Compound 6],3900 nM
3,O=S(=O)(Nc1cc(Cl)c(Cl)c2cccnc12)c1ccccn1 [Compound 73],1100 nM
4,CN(C)c1ccccc1NC(=O)c1ccccn1 [Compound 80],770 nM
5,CCN(CCN(C)C)c1ccnc(C(=O)Nc2cccc3cccnc23)c1 [Compound 40],16 nM
6,CCN1CCN(c2ccnc(C(=O)Nc3cccc4cccnc34)c2)CC1 [Compound 41],17 nM
7,O=C(Nc1cc(N2CCOCC2)cc2cccnc12)c1ccccn1 [Compound 13],25 nM
8,COc1ccnc(C(=O)Nc2cccc3cccnc23)c1 [Compound 29],60 nM
9,O=C(Nc1cccc2cc(Cl)cnc12)c1ccccn1 [Compound 7],310 nM
10,O=C(Nc1cccc2cccnc12)c1cc(N2CCN(CCO)CC2)ccn1 [Compound 39],220 nM
11,O=C(Nc1cccc2cccnc12)c1ncccc1O [Compound 46],51 nM
12,CN(C)c1c(NC(=O)c2ccccn2)ccc(Cl)c1Cl [Compound 91],3500 nM
13,O=C(Nc1cccc2cccnc12)c1cccc(Br)n1 [Compound 26],86 nM
14,O=C(Nc1ccccc1N1CCCC1)c1ccccn1 [Compound 79],8000 nM
15,Cc1cc(NC(=O)c2ccccn2)c2ncccc2c1 [Compound 11],73 nM
16,O=C(Nc1cccc2cccnc12)c1cc(NCCN2CCOCC2)ccn1 [Compound 35],120 nM
17,Cc1ccc(NC(=O)c2ccccn2)c2ncccc12 [Compound 14],130 nM
18,O=C(Nc1cccc2cccnc12)c1cc2ccccc2cn1 [Compound 28],480 nM
19,O=C(Nc1cccc2cccnc12)c1ccccn1 [Compound 1],65 nM
20,Cc1ccc(NS(=O)(=O)c2ccccn2)c2ncccc12 [Compound 74],120 nM
21,COc1cc(NS(=O)(=O)c2ccccn2)c2ncccc2c1 [Compound 72],170 nM
22,O=C(Nc1cc(OCCN2CCOCC2)cc2cccnc12)c1ccccn1 [Compound 20],30 nM
23,O=C(Nc1ccc(Cl)c2cccnc12)c1ccccn1 [Compound 18],170 nM
24,CCCN(C)c1ccccc1NC(=O)c1ccccn1 [Compound 82],2000 nM
25,CCN(C)c1c(NC(=O)c2ccccn2)ccc(Cl)c1Cl [Compound 92],8200 nM
26,O=C(Nc1cccc2cccnc12)c1ncccc1OCCN1CCOCC1 [Compound 48],950 nM

# Same assay, conditions: Homo sapiens, HMVEC, 144 h, VEGF 165 10 ng/mL, 6 days, Alamar blue; read-out: VEGF LC50
row,Structure (SMILES),CC50
1,O=C(Nc1cc(OCCN2CCOCC2)cc2cccnc12)c1ccccn1 [Compound 99],28 nM
2,O=C(Nc1cccc2cccnc12)c1ncccc1OCCN1CCOCC1 [Compound 104],810 nM

# Same assay, conditions: VEGF 165 10 ng/mL, 6 days, Alamar blue; read-out: VEGF LC50
row,Structure (SMILES),CC50
1,O=C(Nc1cccc2cccnc12)c1cc(N2CCSCC2)ccn1 [Compound 44],180 nM
2,"CN1CCC[C@H]1C(=O)Nc1cccc2cccnc12 [Compound 58, (S)-1-methyl-pyrrolidine-2-carboxylic acid quinolin-8-ylamide]",190 nM
3,CN1CCN(c2ccc(NC(=O)c3ccccn3)c3ncccc23)CC1 [Compound 19],28 nM
4,CN(C)CCN(C)c1ccc(NC(=O)c2ccccn2)c2ncccc12 [Compound 21],3700 nM
5,O=C(Nc1ccc(Oc2ccccc2)c2cccnc12)c1ccccn1 [Compound 12],1000 nM
6,O=C(Nc1cccc2cccnc12)c1ccc(-c2ccccc2)cn1 [Compound 33],4700 nM
7,COc1cc(NC(=O)c2cc(N3CCN(C)CC3)ccn2)c2ncccc2c1 [Compound 54],15 nM
8,"CN1CCN(c2ccnc(C(=O)Nc3cccc4cccnc34)c2)CC1 [Compound 34, 4-(4-methylpiperazin-1-yl)pyridine-2-carboxylic acid quinolin-8-ylamide]",13 nM
9,CN1CCN(c2ccnc(C(=O)Nc3cccc4cccnc34)c2)CC1 [Compound 101],15 nM
10,COc1ccc(NC(=O)c2ccccn2)c2ncccc12 [Compound 3],120 nM
11,O=C(Nc1cccc2cccnc12)c1cc(N2CCC(N3CCCC3)CC2)ccn1 [Compound 42],42 nM

# Tested on: HMVEC cells stimulated with b-FGF
# Test: b-FGF driven HMVEC proliferation screen
# Assay type: cell-based
# Settings: not given
# Procedure: as §1
row,Structure (SMILES),CC50
1,O=C(Nc1cc(Cl)cc2cccnc12)c1ccccn1 [Compound 4],110 nM
2,Cc1ccc2cccc(NC(=O)c3ccccn3)c2n1 [Compound 6],3200 nM
3,O=S(=O)(Nc1cc(Cl)c(Cl)c2cccnc12)c1ccccn1 [Compound 73],1000 nM
4,CN(C)c1ccccc1NC(=O)c1ccccn1 [Compound 80],830 nM
5,CCN(CCN(C)C)c1ccnc(C(=O)Nc2cccc3cccnc23)c1 [Compound 40],21 nM
6,CCN1CCN(c2ccnc(C(=O)Nc3cccc4cccnc34)c2)CC1 [Compound 41],18 nM
7,O=C(Nc1cc(N2CCOCC2)cc2cccnc12)c1ccccn1 [Compound 13],26 nM
8,COc1ccnc(C(=O)Nc2cccc3cccnc23)c1 [Compound 29],69 nM
9,O=C(Nc1cccc2cc(Cl)cnc12)c1ccccn1 [Compound 7],320 nM
10,O=C(Nc1cccc2cccnc12)c1cc(N2CCN(CCO)CC2)ccn1 [Compound 39],650 nM
11,O=C(Nc1cccc2cccnc12)c1ncccc1O [Compound 46],66 nM
12,CN(C)c1c(NC(=O)c2ccccn2)ccc(Cl)c1Cl [Compound 91],2400 nM
13,O=C(Nc1cccc2cccnc12)c1cccc(Br)n1 [Compound 26],120 nM
14,O=C(Nc1ccccc1N1CCCC1)c1ccccn1 [Compound 79],6500 nM
15,Cc1cc(NC(=O)c2ccccn2)c2ncccc2c1 [Compound 11],68 nM
16,O=C(Nc1cccc2cccnc12)c1cc(NCCN2CCOCC2)ccn1 [Compound 35],160 nM
17,Cc1ccc(NC(=O)c2ccccn2)c2ncccc12 [Compound 14],170 nM
18,O=C(Nc1cccc2cccnc12)c1cc2ccccc2cn1 [Compound 28],610 nM
19,O=C(Nc1cccc2cccnc12)c1ccccn1 [Compound 1],61 nM
20,Cc1ccc(NS(=O)(=O)c2ccccn2)c2ncccc12 [Compound 74],110 nM
21,COc1cc(NS(=O)(=O)c2ccccn2)c2ncccc2c1 [Compound 72],240 nM
22,O=C(Nc1cc(OCCN2CCOCC2)cc2cccnc12)c1ccccn1 [Compound 20],31 nM
23,O=C(Nc1ccc(Cl)c2cccnc12)c1ccccn1 [Compound 18],200 nM
24,CCCN(C)c1ccccc1NC(=O)c1ccccn1 [Compound 82],1300 nM
25,CCN(C)c1c(NC(=O)c2ccccn2)ccc(Cl)c1Cl [Compound 92],7900 nM
26,O=C(Nc1cccc2cccnc12)c1ncccc1OCCN1CCOCC1 [Compound 48],1600 nM

# Same assay, conditions: Homo sapiens, HMVEC, 144 h, b-FGF 2.5 ng/mL, 6 days, Alamar blue; read-out: b-FGF LC50
row,Structure (SMILES),CC50
1,O=C(Nc1cc(OCCN2CCOCC2)cc2cccnc12)c1ccccn1 [Compound 99],31 nM
2,O=C(Nc1cccc2cccnc12)c1ncccc1OCCN1CCOCC1 [Compound 104],1400 nM

# Same assay, conditions: b-FGF 2.5 ng/mL, 6 days, Alamar blue; read-out: b-FGF LC50
row,Structure (SMILES),CC50
1,O=C(Nc1cccc2cccnc12)c1cc(N2CCSCC2)ccn1 [Compound 44],250 nM
2,"CN1CCC[C@H]1C(=O)Nc1cccc2cccnc12 [Compound 58, (S)-1-methyl-pyrrolidine-2-carboxylic acid quinolin-8-ylamide]",170 nM
3,CN1CCN(c2ccc(NC(=O)c3ccccn3)c3ncccc23)CC1 [Compound 19],28 nM
4,CN(C)CCN(C)c1ccc(NC(=O)c2ccccn2)c2ncccc12 [Compound 21],2400 nM
5,O=C(Nc1ccc(Oc2ccccc2)c2cccnc12)c1ccccn1 [Compound 12],1000 nM
6,O=C(Nc1cccc2cccnc12)c1ccc(-c2ccccc2)cn1 [Compound 33],6100 nM
7,COc1cc(NC(=O)c2cc(N3CCN(C)CC3)ccn2)c2ncccc2c1 [Compound 54],20 nM
8,"CN1CCN(c2ccnc(C(=O)Nc3cccc4cccnc34)c2)CC1 [Compound 34, 4-(4-methylpiperazin-1-yl)pyridine-2-carboxylic acid quinolin-8-ylamide]",18 nM
9,CN1CCN(c2ccnc(C(=O)Nc3cccc4cccnc34)c2)CC1 [Compound 101],14 nM
10,COc1ccc(NC(=O)c2ccccn2)c2ncccc12 [Compound 3],110 nM
11,O=C(Nc1cccc2cccnc12)c1cc(N2CCC(N3CCCC3)CC2)ccn1 [Compound 42],33 nM

# Tested on: Primary Human Dermal Fibroblasts
# Test: in vitro
# Settings: read-out: D. Fibroblast LC50; 6 days, Alamar blue
# Procedure: In parallel with the VEGF and FGF screens, a normal cell toxicity assay was run. Primary Human Dermal Fibroblasts (Clonetics) were plated at 5000 cells/well. After 24 hours various concentrations of test compounds, were added in duplicate plates and 10% Tween-20 was added to four control wells to represent total death. At the same time a T-zero plate was generated. The plates were returned to the carbon dioxide incubator and on day 6 Alamar blue was added and the plates read after 3 hours.
# Using a T-zero plate allows the observation of compounds that cause the cells to become static as well as inhibit growth.
row,Structure (SMILES),CC50
1,O=C(Nc1cc(Cl)cc2cccnc12)c1ccccn1 [Compound 4],> 10000 nM
2,Cc1ccc2cccc(NC(=O)c3ccccn3)c2n1 [Compound 6],> 10000 nM
3,O=S(=O)(Nc1cc(Cl)c(Cl)c2cccnc12)c1ccccn1 [Compound 73],> 10000 nM
4,O=C(Nc1cccc2cccnc12)c1cc(N2CCSCC2)ccn1 [Compound 44],> 10000 nM
5,CN(C)c1ccccc1NC(=O)c1ccccn1 [Compound 80],> 10000 nM
6,CCN(CCN(C)C)c1ccnc(C(=O)Nc2cccc3cccnc23)c1 [Compound 40],7600 nM
7,CCN1CCN(c2ccnc(C(=O)Nc3cccc4cccnc34)c2)CC1 [Compound 41],4200 nM
8,"CN1CCC[C@H]1C(=O)Nc1cccc2cccnc12 [Compound 58, (S)-1-methyl-pyrrolidine-2-carboxylic acid quinolin-8-ylamide]",> 10000 nM
9,O=C(Nc1cc(N2CCOCC2)cc2cccnc12)c1ccccn1 [Compound 13],> 10000 nM
10,COc1ccnc(C(=O)Nc2cccc3cccnc23)c1 [Compound 29],> 10000 nM
11,CN1CCN(c2ccc(NC(=O)c3ccccn3)c3ncccc23)CC1 [Compound 19],> 10000 nM
12,CN(C)CCN(C)c1ccc(NC(=O)c2ccccn2)c2ncccc12 [Compound 21],> 10000 nM
13,O=C(Nc1ccc(Oc2ccccc2)c2cccnc12)c1ccccn1 [Compound 12],> 10000 nM
14,O=C(Nc1cccc2cc(Cl)cnc12)c1ccccn1 [Compound 7],> 10000 nM
15,O=C(Nc1cccc2cccnc12)c1cc(N2CCN(CCO)CC2)ccn1 [Compound 39],> 10000 nM
16,O=C(Nc1cccc2cccnc12)c1ncccc1O [Compound 46],> 10000 nM
17,CN(C)c1c(NC(=O)c2ccccn2)ccc(Cl)c1Cl [Compound 91],> 10000 nM

row,Structure (SMILES),CC50
1,O=C(Nc1cccc2cccnc12)c1cccc(Br)n1 [Compound 26],> 10000 nM
2,O=C(Nc1cccc2cccnc12)c1ccc(-c2ccccc2)cn1 [Compound 33],> 10000 nM
3,O=C(Nc1ccccc1N1CCCC1)c1ccccn1 [Compound 79],> 10000 nM
4,Cc1cc(NC(=O)c2ccccn2)c2ncccc2c1 [Compound 11],> 10000 nM
5,COc1cc(NC(=O)c2cc(N3CCN(C)CC3)ccn2)c2ncccc2c1 [Compound 54],> 10000 nM
6,O=C(Nc1cccc2cccnc12)c1cc(NCCN2CCOCC2)ccn1 [Compound 35],> 10000 nM
7,Cc1ccc(NC(=O)c2ccccn2)c2ncccc12 [Compound 14],> 10000 nM
8,"CN1CCN(c2ccnc(C(=O)Nc3cccc4cccnc34)c2)CC1 [Compound 34, 4-(4-methylpiperazin-1-yl)pyridine-2-carboxylic acid quinolin-8-ylamide]",> 10000 nM
9,CN1CCN(c2ccnc(C(=O)Nc3cccc4cccnc34)c2)CC1 [Compound 101],> 10000 nM
10,O=C(Nc1cccc2cccnc12)c1cc2ccccc2cn1 [Compound 28],> 10000 nM
11,COc1ccc(NC(=O)c2ccccn2)c2ncccc12 [Compound 3],> 10000 nM
12,Cc1ccc(NS(=O)(=O)c2ccccn2)c2ncccc12 [Compound 74],> 10000 nM
13,COc1cc(NS(=O)(=O)c2ccccn2)c2ncccc2c1 [Compound 72],> 10000 nM
14,O=C(Nc1cccc2cccnc12)c1cc(N2CCC(N3CCCC3)CC2)ccn1 [Compound 42],3600 nM
15,O=C(Nc1ccc(Cl)c2cccnc12)c1ccccn1 [Compound 18],> 10000 nM
16,CCCN(C)c1ccccc1NC(=O)c1ccccn1 [Compound 82],> 10000 nM
17,CCN(C)c1c(NC(=O)c2ccccn2)ccc(Cl)c1Cl [Compound 92],> 10000 nM
